Test results as given in the Bradley open melting point set (2014).

First: NCC(=O)O [Glycine]
Second: N[C@@H](CO)C(=O)O [L-Serine]
The melting point of the first is higher: 240 °C for the first, 222 °C for the second.

COc1cc(OC)c2c(c1Cl)O[C@]1(C2=O)C(OC)CC(=O)C[C@H]1C (stereo partly drawn) [Griseofulvin] and COC1=CC(=O)C[C@@H](C)[C@]12Oc1c(Cl)c(OC)cc(OC)c1C2=O [Griseofulvin] are the same in melting point: 220 °C for the first, 220 °C for the second.

Compared with O=C(CCCN1CCC(O)(c2ccc(Cl)cc2)CC1)c1ccc(F)cc1 [Haloperidol], CCOC(=O)Cc1c(C)n(C(=O)c2ccc(Cl)cc2)c2ccc(OC)cc12 [Indomethacin ethyl ester] is lower in melting point: 148 °C for the first, 96 °C for the second.

Compared with ClC1=C(Cl)C2(Cl)C3C4OC4C(Cl)C3C1(Cl)C2(Cl)Cl (stereo not drawn) [Heptachlor epoxide], ClC1C(Cl)C(Cl)C(Cl)C(Cl)C1Cl (stereo not drawn) [Lindane] is lower in melting point: 160 °C for the first, 114 °C for the second.

Going from CCCC(=O)CCC [Heptan-4-one] to CCCN(CCC)CCC [N,N-Dipropylpropan-1-amine], the melting point falls from -33 °C to -93.5 °C.

First: Brc1c(Br)c(Br)c(Br)c(Br)c1Br [Hexabromobenzene]
Second: CC1=CC(=O)c2ccccc2C1=O [Menadione]
The melting point of the first is higher: 306 °C for the first, 102 °C for the second.

Compared with O=C(O)CCCCCCCCCCCCCCC(=O)O [Hexadecanedioic acid], CCCCCCCCCCCCCC(=O)O [Myristic acid] is lower in melting point: 125 °C for the first, 55.1 °C for the second.

Compared with CCCCCCN [Hexan-1-amine], CCCCN(CCCC)CCCN [N,N-di-n-butyl-1,3-propylenediamine] is lower in melting point: -23 °C for the first, -70 °C for the second.

OCCCCCCO [Hexane-1,6-Diol] and CCCCCCCCCCCC(=O)O [Lauric acid] are the same in melting point: 45 °C for the first, 45 °C for the second.

Going from NS(=O)(=O)c1cc2c(cc1Cl)NCNS2(=O)=O [Hydrochlorothiazide] to CC(Oc1c(Cl)cccc1Cl)C1=NCCN1 (stereo not drawn) [Lofexidine], the melting point falls from 274 °C to 127 °C.

Compared with II [Iodine], CN=C=O [Isocyanatomethane] is lower in melting point: 114 °C for the first, -80 °C for the second.

Compared with CC(COc1ccccc1)NC(C)C(O)c1ccc(O)cc1 (stereo not drawn) [Isolait], CC(C(=O)O)c1cccc(C(=O)c2ccccc2)c1 (stereo not drawn) [Ketoprofen] is lower in melting point: 103 °C for the first, 93 °C for the second.

First: CN=C=S [Isothiocyanatomethane]
Second: CO [Methanol]
The melting point of the first is higher: 35 °C for the first, -98 °C for the second.

Going from NC(=O)C[C@H](N)C(=O)O [L-Asparagine] to N[C@@H](CC(=O)O)C(=O)O [L-Aspartic Acid], the melting point falls from 235 °C to 230 °C.

Compared with C[N+](C)(C)C[C@H](O)CC(=O)[O-] [L-Carnitine], C[C@@H](O)[C@H](N)C(=O)O [L-Threonine] is higher in melting point: 196 °C for the first, 256 °C for the second.

Going from NC(=O)NCCC[C@H](N)C(=O)O [L-Citrulline] to N[C@@H](CCC(=O)O)C(=O)O [L-Glutamic Acid], the melting point rises from 214 °C to 224 °C.

First: O=C[C@@H](O)[C@H](O)[C@@H](O)[C@@H](O)CO [L-Glucose]
Second: C(O)[C@H](O)[C@@H](O)[C@@H](O)CO [L-arabitol]
The melting point of the first is higher: 150 °C for the first, 101 °C for the second.

First: O=C(O)[C@@H]1CCCN1 [L-Proline]
Second: CC(=O)CCC(=O)O [Laevulinic Acid]
The melting point of the first is higher: 228 °C for the first, 33 °C for the second.

First: CC(C)[C@@H]1CC[C@@H](C)C[C@H]1O [L-menthol]
Second: CC[C@H](C)C(=O)O[C@H]1C[C@@H](C)C=C2C=C[C@H](C)[C@H](CC[C@@H]3C[C@@H](O)CC(=O)O3)[C@H]21 [Lovastatin]
The melting point of the first is lower: 44 °C for the first, 175 °C for the second.

First: CSCC[C@H](N)CO [L-methioninol]
Second: CN(C)C(=N)NC(=N)N [Metformin]
The melting point of the first is lower: 32 °C for the first, 224 °C for the second.

Going from CCCCCCCCCCCC(N)=O [Lauramide] to CCCCN(CCCC)CCCC [N,N-Dibutylbutan-1-amine], the melting point falls from 99 °C to -70 °C.

Going from N#Cc1ccc(C(c2ccc(C#N)cc2)n2cncn2)cc1 [Letrozole] to CC(=O)Nc1ccc(/C=C/c2ccc(NC(C)=O)cc2)cc1 [N,N'-[(E)-ethene-1,2-diyldibenzene-4,1-diyl]diacetamide], the melting point rises from 184 °C to 219 °C.

First: C=CCN1CC[C@]23CCCC[C@H]2[C@H]1Cc1ccc(O)cc13 [Levallorphan]
Second: CCOC(=O)C1(c2ccccc2)CCN(C)CC1 [Meperidine]
The melting point of the first is lower: 181 °C for the first, 188 °C for the second.

First: O=C1Nc2ccc(Cl)cc2C(c2ccccc2Cl)=NC1O (stereo not drawn) [Lorazepam]
Second: Cc1ccccc1-n1c(C)nc2ccccc2c1=O [Methaqualone]
The melting point of the first is higher: 166 °C for the first, 113 °C for the second.

First: Cc1cccc(O)c1 [M-Cresol]
Second: COC(=O)c1ccc(O)cc1 [Methyl 4-hydroxybenzoate]
The melting point of the first is lower: 11.8 °C for the first, 127 °C for the second.

Going from CCc1c(C)[nH]c2ccc(N(C)C)cc12 [Medmain] to CN(C)c1ccc(N)cc1 [N,N-dimethyl-p-phenylenediamine], the melting point falls from 100 °C to 36 °C.

Compared with CCC1(c2ccccc2)NC(=O)N(C)C1=O (stereo not drawn) [Mephenytoin], CCC1(c2ccccc2)C(=O)NC(=O)N(C)C1=O (stereo not drawn) [Methylphenobarbital] is higher in melting point: 135 °C for the first, 176 °C for the second.

Going from CCC1(CC)C(=O)NC(=O)N(C)C1=O [Metharbital] to CCNC(=O)C(=O)NCC [N,N'-diethyloxamide], the melting point rises from 150 °C to 180 °C.

Going from COC(F)(F)C(Cl)Cl [Methoxyflurane] to C=CC(=O)OC [Methyl acrylate], the melting point falls from -35 °C to -75 °C.

Compared with COC(=O)c1ccccc1N [Methyl 2-aminobenzoate], COC(=O)c1ccccc1 [Methyl benzoate] is lower in melting point: 24 °C for the first, -12 °C for the second.

First: COC(=O)[C@H](Cc1ccccc1)NC(=O)[C@@H](N)CC(=O)O [Methyl L-alpha-aspartyl-L-phenylalaninate]
Second: COC(=O)[C@@H](N)Cc1ccc(O)cc1 [Methyl L-tyrosinate]
The melting point of the first is higher: 249 °C for the first, 134 °C for the second.

Going from COc1ccc(NC(=O)N(C)C)cc1Cl [Metoxuron] to CN(C)c1ccc(N=O)cc1 [N,N-Dimethyl-4-nitrosoaniline], the melting point falls from 127 °C to 86 °C.

Going from NC(=O)CS(=O)C(c1ccccc1)c1ccccc1 (stereo not drawn) [Modafinil] to O=C(NNc1ccccc1)NNc1ccccc1 [N'',N'''-Diphenylcarbonohydrazide], the melting point rises from 165 °C to 173 °C.

Going from CCOC(=O)Nc1ccc2c(c1)N(C(=O)CCN1CCOCC1)c1ccccc1S2 [Moricizine] to CC(=O)Nc1nc(O)c2ncn(COCCOC(C)=O)c2n1 [N,O-Diacetylacyclovir], the melting point rises from 156 °C to 204 °C.

First: NCCNCCNCCN [N,N'-Bis(2-aminoethyl)ethane-1,2-diamine]
Second: NCCNCCN [N-(2-Aminoethyl)ethane-1,2-diamine]
The melting point of the first is higher: 12 °C for the first, -35 °C for the second.

Compared with CCCCNC(=S)NCCCC [N,N'-di-n-butylthiourea], CCN(O)CC [N,N-diethylhydroxylamine] is lower in melting point: 66 °C for the first, -25 °C for the second.

First: C(=NC1CCCCC1)=NC1CCCCC1 [N,N'-dicyclohexylcarbodiimide]
Second: CN(C)S(C)(=O)=O [N,N-dimethylmethanesulfonamide]
The melting point of the first is lower: 35 °C for the first, 48 °C for the second.

Going from CNC(=O)NC [N,N'-dimethylurea] to CN(C)c1ccc(N=O)cc1 [N,N-dimethyl-4-nitrosoaniline], the melting point falls from 102 °C to 86 °C.

First: c1ccc(CN(Cc2ccccc2)c2ccccc2)cc1 [N,N-dibenzylaniline]
Second: CN(C)c1ccccc1 [N,N-dimethylaniline]
The melting point of the first is higher: 70 °C for the first, 2 °C for the second.
